Tests used:
Type in all cases: in vivo
Settings in all cases: Glyphosate 0.375 lb/acre; AMS 17 lb/100 gal, NIS, AQ 284 or AQ 268 […] v/v, INTERLOCK 4 fl oz/acre
[1] = system: Corn; experiment: Greenhouse study for weed control, corn
Description: (§1) A greenhouse study was conducted to test the efficacy of the AQ 284 combination water conditioning adjuvant and drift reduction composition compared to the commercial standard (INTERLOCK). Greenhouse research was conducted with individual plants growing in 3×3×3 inch pots. Greenhouse treatments were applied with a track sprayer using an 8002 E single nozzle applying 20 gpa.

[2] = system: Corn, Sunflower, Wheat; experiment: Greenhouse study for weed control, average of species
Description: as §1

[3] = system: Sunflower; experiment: Greenhouse study for weed control, sunflower
Description: as §1

[4] = system: Wheat; experiment: Greenhouse study for weed control, wheat
Description: as §1

SMILES: O=C(O)CNCP(=O)(O)O [Glyphosate, N-(phosphonomethyl)glycine]
- Corn % Control 18 Days After Application [1]: 10.0%
- Average % Control 18 Days After Application [2]: 13.3%
- Sunflower % Control 18 Days After Application [3]: 15.0%
- Wheat % Control 18 Days After Application [4]: 15.0%

Source: US8809234B1, “Drift reduction compositions for agricultural use” (AgQuam LLC, priority 2011, dated 2014)
